Measurements published in US11498899B2, “Nitrone herbicides” (FMC Corporation, priority 2016, dated 2022).

Experiments:
[1] = system: barnyardgrass (Echinochloa crus-galli); assay: Test A preemergence, visual injury rating 0-100 (0 no effect, 100 complete control); assay type: in vivo; settings: for Barnyardgrass plant response rating (0 to 100 scale): 125 g ai/ha
[2] = system: foxtail, green (green foxtail, Setaria viridis); assay: Test A preemergence, visual injury rating 0-100; assay type: in vivo
kochia (Kochia scoparia) [3] = assay: Test A preemergence, visual injury rating 0-100; assay type: in vivo
[4] = system: pigweed (Amaranthus retroflexus); assay: Test A preemergence, visual injury rating 0-100; assay type: in vivo
[5] = system: ragweed (common ragweed, Ambrosia elatior); assay: Test A preemergence, visual injury rating 0-100; assay type: in vivo
[6] = system: ryegrass, Italian (Italian ryegrass, Lolium multiflorum); assay: Test A preemergence, visual injury rating 0-100; assay type: in vivo
[7] = system: barnyardgrass (Echinochloa crus-galli); assay: Test A postemergence, visual injury rating 0-100; assay type: in vivo; settings: 0 to 100 scale
[8] = system: blackgrass (Alopecurus myosuroides); assay: Test A postemergence, visual injury rating 0-100; assay type: in vivo; settings: 0 to 100 scale
corn (Zea mays) = assay: Test A postemergence, visual injury rating 0-100; assay type: in vivo; settings: 0 to 100 scale
[9] = system: foxtail, green (green foxtail, Setaria viridis); assay: Test A postemergence, visual injury rating 0-100; assay type: in vivo; settings: 0 to 100 scale
[10] = system: galium (catchweed bedstraw, Galium aparine); assay: Test A postemergence, visual injury rating 0-100; assay type: in vivo; settings: 0 to 100 scale
kochia (Kochia scoparia) [11] = assay: Test A postemergence, visual injury rating 0-100; assay type: in vivo; settings: 0 to 100 scale
[12] = system: pigweed (Amaranthus retroflexus); assay: Test A postemergence, visual injury rating 0-100; assay type: in vivo; settings: 0 to 100 scale
[13] = system: ragweed (common ragweed, Ambrosia elatior); assay: Test A postemergence, visual injury rating 0-100; assay type: in vivo; settings: 0 to 100 scale
[14] = system: ryegrass, Italian (Italian ryegrass, Lolium multiflorum); assay: Test A postemergence, visual injury rating 0-100; assay type: in vivo; settings: 0 to 100 scale
[15] = system: wheat (Triticum aestivum); assay: Test A postemergence, visual injury rating 0-100; assay type: in vivo; settings: 0 to 100 scale
[16] = system: ducksalad (Heteranthera limosa); assay: Test B flooded paddy test, visual rating 0-100; settings: Flood, 250 g ai/ha, applied to paddy water, rated after 13 to 15 days
[17] = system: barnyardgrass (Echinochloa crus-galli); assay: Test B flooded paddy test, visual rating 0-100; settings: Flood, 250 g ai/ha, applied to paddy water, rated after 13 to 15 days
rice (Oryza sativa) = assay: Test B flooded paddy test, visual rating 0-100 (0 no effect, 100 complete control); settings: Flood, 250 g ai/ha, applied to paddy water, rated after 13 to 15 days
[18] = 31 g ai/ha, 0 to 100 scale (0 no effect, 100 complete control), approx. 10 days

Row | SMILES | Barnyardgrass plant response rating (0 to 100 scale) [1] | Barnyardgrass plant response rating ([1]; 500 g ai/ha, 0 to 100 scale) | Foxtail, Green plant response rating (0 to 100 scale) ([2]; 125 g ai/ha) | Kochia plant response rating (0 to 100 scale) (kochia (Kochia scoparia) [3]; 125 g ai/ha) | Pigweed plant response rating (0 to 100 scale) ([4]; 125 g ai/ha) | Ragweed plant response rating (0 to 100 scale) ([5]; 125 g ai/ha) | Ryegrass, Italian plant response rating (0 to 100 scale) ([6]; 125 g ai/ha) | Barnyardgrass plant response rating ([7]; 125 g ai/ha) | Blackgrass plant response rating ([8]; 125 g ai/ha) | Corn plant response rating (corn (Zea mays); 125 g ai/ha) | Foxtail, Green plant response rating ([9]; 125 g ai/ha) | Galium plant response rating ([10]; 125 g ai/ha) | Kochia plant response rating (kochia (Kochia scoparia) [11]; 125 g ai/ha) | Pigweed plant response rating ([12]; 125 g ai/ha) | Ragweed plant response rating ([13]; 125 g ai/ha) | Ryegrass, Italian plant response rating ([14]; 125 g ai/ha) | Wheat plant response rating ([15]; 125 g ai/ha) | Ducksalad plant response rating (0 to 100 scale) [16] | Barnyardgrass plant response rating (0 to 100 scale) [17] | Rice plant response rating (0 to 100 scale) (rice (Oryza sativa)) | also measured
1 | CC1=[N+]([O-])C(C(=O)Nc2cccnc2F)C(c2ccc(C(F)(F)F)cc2)C1 (racemic) [Compound 41] | 90 | 100 | 80 | 0 | 90 | 80 | 10 | 30 | 30 | 0 | 40 | 60 | 0 | 30 | 0 | 0 | 0 | 80 | 20 | 0 | Foxtail, Green plant response rating (0 to 100 scale) ([2]; 500 g ai/ha): 100; Kochia plant response rating (0 to 100 scale) (kochia (Kochia scoparia) [3]; 500 g ai/ha): 90; Pigweed plant response rating (0 to 100 scale) ([4]; 500 g ai/ha): 90; Ragweed plant response rating (0 to 100 scale) ([5]; 500 g ai/ha): 100; Ryegrass, Italian plant response rating (0 to 100 scale) ([6]; 500 g ai/ha): 70; Barnyardgrass plant response rating ([7]; 500 g ai/ha): 90; Blackgrass plant response rating ([8]; 500 g ai/ha): 50; Corn plant response rating (corn (Zea mays); 500 g ai/ha): 0; Foxtail, Green plant response rating ([9]; 500 g ai/ha): 80; Galium plant response rating ([10]; 500 g ai/ha): 70; Kochia plant response rating (kochia (Kochia scoparia) [11]; 500 g ai/ha): 20; Pigweed plant response rating ([12]; 500 g ai/ha): 70; Ragweed plant response rating ([13]; 500 g ai/ha): 40; Ryegrass, Italian plant response rating ([14]; 500 g ai/ha): 70; Wheat plant response rating ([15]; 500 g ai/ha): 30
2 | CC1=[N+]([O-])C(C(=O)Nc2cccc(F)c2F)C(c2ccccc2F)C1 (racemic) [Compound 21] | 10 | 90 | 20 | 0 | 0 | 0 | 0 | 0 | 0 | 0 | 0 | 0 | 0 | 0 | 0 | 0 | 0 | 80 | 40 | 0 | Foxtail, Green plant response rating ([2]; 500 g ai/ha, 0 to 100 scale): 90; Kochia plant response rating (kochia (Kochia scoparia) [3]; 500 g ai/ha, 0 to 100 scale): 40; Pigweed plant response rating ([4]; 500 g ai/ha, 0 to 100 scale): 0; Ragweed plant response rating ([5]; 500 g ai/ha, 0 to 100 scale): 0; Ryegrass, Italian plant response rating ([6]; 500 g ai/ha, 0 to 100 scale): 0; Barnyardgrass plant response rating ([7]; 500 g ai/ha): 50; Blackgrass plant response rating ([8]; 500 g ai/ha): 20; Corn plant response rating (corn (Zea mays); 500 g ai/ha): 20; Foxtail, Green plant response rating ([9]; 500 g ai/ha): 20; Galium plant response rating ([10]; 500 g ai/ha): 0; Kochia plant response rating (kochia (Kochia scoparia) [11]; 500 g ai/ha): 0; Pigweed plant response rating ([12]; 500 g ai/ha): 0; Ragweed plant response rating ([13]; 500 g ai/ha): 0; Ryegrass, Italian plant response rating ([14]; 500 g ai/ha): 0; Wheat plant response rating ([15]; 500 g ai/ha): 0
3 | CC1=[N+]([O-])[C@@H](C(=O)Nc2cccc(F)c2F)[C@H](c2cccc(C(F)(F)F)c2)C1 [Compound 45] | 100 | – | 100 | 20 | 0 | 80 | 80 | 50 | 60 | 50 | 80 | 30 | 0 | 20 | 0 | 40 | 60 | 95 | 75 | 0 | Barnyardgrass plant response rating [1, 18]: 40; Foxtail, Green plant response rating [2, 18]: 90; Kochia plant response rating (kochia (Kochia scoparia) [3]; [18]): 0; Pigweed plant response rating [4, 18]: 0; Ragweed plant response rating [5, 18]: 0; Ryegrass, Italian plant response rating [6, 18]: 10; Barnyardgrass plant response rating ([7]; 31 g ai/ha): 10; Blackgrass plant response rating ([8]; 31 g ai/ha): 20; Corn plant response rating (corn (Zea mays); 31 g ai/ha): 40; Foxtail, Green plant response rating ([9]; 31 g ai/ha): 30; Galium plant response rating ([10]; 31 g ai/ha): 20; Kochia plant response rating (kochia (Kochia scoparia) [11]; 31 g ai/ha): 0; Pigweed plant response rating ([12]; 31 g ai/ha): 0; Ragweed plant response rating ([13]; 31 g ai/ha): 0; Ryegrass, Italian plant response rating ([14]; 31 g ai/ha): 10; Wheat plant response rating ([15]; 31 g ai/ha): 30
4 | CC1=[N+]([O-])C(C(=O)Nc2cccc(F)c2F)C(c2cccc(Br)c2)C1 (racemic) [Compound 19] | 70 | 90 | 50 | 0 | 20 | 20 | 0 | 10 | 20 | 30 | 30 | 0 | 0 | 0 | 0 | 0 | 0 | 95 | 85 | 15 | Foxtail, Green plant response rating ([2]; 500 g ai/ha, 0 to 100 scale): 90; Kochia plant response rating (kochia (Kochia scoparia) [3]; 500 g ai/ha, 0 to 100 scale): 60; Pigweed plant response rating ([4]; 500 g ai/ha, 0 to 100 scale): 60; Ragweed plant response rating ([5]; 500 g ai/ha, 0 to 100 scale): 50; Ryegrass, Italian plant response rating ([6]; 500 g ai/ha, 0 to 100 scale): 40; Barnyardgrass plant response rating ([7]; 500 g ai/ha): 90; Blackgrass plant response rating ([8]; 500 g ai/ha): 60; Corn plant response rating (corn (Zea mays); 500 g ai/ha): 80; Foxtail, Green plant response rating ([9]; 500 g ai/ha): 60; Galium plant response rating ([10]; 500 g ai/ha): 30; Kochia plant response rating (kochia (Kochia scoparia) [11]; 500 g ai/ha): 30; Pigweed plant response rating ([12]; 500 g ai/ha): 20; Ragweed plant response rating ([13]; 500 g ai/ha): 20; Ryegrass, Italian plant response rating ([14]; 500 g ai/ha): 40; Wheat plant response rating ([15]; 500 g ai/ha): 70
5 | CC1=[N+]([O-])[C@H](C(=O)Nc2cccc(F)c2F)[C@@H](c2ccc(C)cc2)C1 [Compound 42, (2S,3R)—N-(2,3-Difluorophenyl)-3,4-dihydro-5-methyl-3-(4-methylphenyl)-2H-pyrrole-2-carboxamide 1-oxide] | 100 | – | 100 | 90 | 80 | 70 | 80 | 90 | 80 | 50 | 90 | 60 | 30 | 20 | 30 | 30 | 80 | 100 | 90 | 30 | Barnyardgrass plant response rating [1, 18]: 100; Foxtail, Green plant response rating [2, 18]: 100; Kochia plant response rating (kochia (Kochia scoparia) [3]; [18]): 0; Pigweed plant response rating [4, 18]: 0; Ragweed plant response rating [5, 18]: 0; Ryegrass, Italian plant response rating [6, 18]: 0; Barnyardgrass plant response rating ([7]; 31 g ai/ha): 50; Blackgrass plant response rating ([8]; 31 g ai/ha): 80; Corn plant response rating (corn (Zea mays); 31 g ai/ha): 20; Foxtail, Green plant response rating ([9]; 31 g ai/ha): 50; Galium plant response rating ([10]; 31 g ai/ha): 40; Kochia plant response rating (kochia (Kochia scoparia) [11]; 31 g ai/ha): 0; Pigweed plant response rating ([12]; 31 g ai/ha): 0; Ragweed plant response rating ([13]; 31 g ai/ha): 0; Ryegrass, Italian plant response rating ([14]; 31 g ai/ha): 0; Wheat plant response rating ([15]; 31 g ai/ha): 20
